Assay results published in patent US12599672B2, “KRAS proteolysis targeting chimeras” (PAQ Therapeutics Inc., priority 2023, dated 2026).

Tests used:
Format in all cases: cell-based
KRAS G12V = biological target: T1, KRAS G12V (Homo sapiens, UniProt P01116, G12V); assay: KRAS G12V HiBit assay; conditions: SW620-KRAS (G12V)-HiBit-KI cells, compound treatment for 24 hours, class symbols
T1 construct: SW620-KRAS (G12V)-HiBit-KI cell (Pharmaron); host or cells: SW620-KRAS (G12V)-HiBit-KI cells (HiBiT knock-in at the endogenous KRAS locus)
T1 sequence (P01116 1-188 isoform P01116-2 G12V): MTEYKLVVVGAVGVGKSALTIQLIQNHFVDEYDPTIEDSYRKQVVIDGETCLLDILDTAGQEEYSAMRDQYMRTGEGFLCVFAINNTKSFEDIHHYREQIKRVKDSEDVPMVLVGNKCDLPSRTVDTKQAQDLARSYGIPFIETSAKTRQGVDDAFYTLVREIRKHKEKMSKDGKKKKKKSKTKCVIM
How it was run: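 Luminescence from lytic Nano-Glo HiBiT detection with LgBiT read KRAS G12V levels after 24 h compound exposure. Dilutions were 10-point, 3-fold, from a 0.3 mM DMSO stock. Degradation activity was normalised to cells given 0.1% DMSO alone.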

KRAS = biological target: T2, KRAS (Homo sapiens, UniProt P01116); assay: KRASamp MSD assay; conditions: KE39 (KRAS amplified) cells, treated with test compounds for 24 hr, MSD readout of KRAS degradation
T2 construct: endogenous in cells; host or cells: KE39 (KRAS amplified) cells
T2 sequence (P01116 1-188 isoform P01116-2): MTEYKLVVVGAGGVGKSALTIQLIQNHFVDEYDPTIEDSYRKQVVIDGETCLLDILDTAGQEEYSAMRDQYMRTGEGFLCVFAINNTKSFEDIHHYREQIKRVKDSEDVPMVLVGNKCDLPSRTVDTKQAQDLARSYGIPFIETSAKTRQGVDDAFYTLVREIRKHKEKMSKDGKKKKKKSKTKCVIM
How it was run: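 Degradation DC50 derived by curve fitting, with KRAS levels quantified by MSD electrochemiluminescence (capture/detection antibodies, recombinant WT KRAS standard). Lysates prepared from KE39 cells (KRAS amplified) exposed to test compounds for 24 hr.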

KRAS G12D = biological target: T3, KRAS G12D (Homo sapiens, UniProt P01116, G12D); assay: KRAS G12D HiBit assay; conditions: AsPc-1-KRAS (G12D)-HiBit-KI cell, compound treatment for 24 hours, absolute DC50
T3 construct: AsPc-1-KRAS (G12D)-HiBit-KI cell (Pharmaron); host or cells: AsPc-1-KRAS (G12D)-HiBit-KI cells (HiBiT knock-in at the endogenous KRAS locus)
T3 sequence (P01116 1-188 isoform P01116-2 G12D): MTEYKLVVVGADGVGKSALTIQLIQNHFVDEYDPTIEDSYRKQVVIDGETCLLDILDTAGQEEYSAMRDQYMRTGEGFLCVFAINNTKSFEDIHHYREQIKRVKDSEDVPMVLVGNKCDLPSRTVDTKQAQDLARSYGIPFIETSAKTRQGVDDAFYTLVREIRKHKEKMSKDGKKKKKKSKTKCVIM
How it was run: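 HiBiT luminescence, detected by adding lytic buffer, substrate and LgBiT protein, served as the KRAS G12D read-out. Compounds, serially diluted 3-fold over 10 points from 0.3 mM DMSO stock, were on cells for 24 h; percent inhibition normalized to cells given 0.1% DMSO only.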

Row | DC50 (KRAS G12V) [nM] | DC50 (KRAS) [nM] | DC50 (KRAS G12D; class symbols) [nM] | DC50 (KRAS G12D; numeric bounds given in place of class symbols) [nM] | Structure (SMILES)
1 | 10 to 100 | 1 to 10 | < 100 | – | CCc1c(F)ccc2cc(O)cc(-c3ncc4c(N5CCC[C@@](C)(O)C5)nc(OC[C@@]56CCCN5[C@H](CN5CCC(CN7CCC(c8ccc9c(c8)n(C)c(=O)n9C8CCC(=O)NC8=O)CC7)CC5)CC6)nc4c3F)c12 (stereo partly drawn) [Compound 402, 3-(5-(1-((1-(((35,7aS)-7a-(((7-(8-Ethyl-7-fluoro-3-hydroxynaphthalen-1-yl)-8-fluoro-4-((R)-3-hydroxy-3-methylpiperidin-1-yl)pyrido[4,3-d]pyrimidin-2-yl)oxy)methyl)hexahydro-1H-pyrrolizin-3-yl)methyl)piperidin-4-yl)methyl)piperidin-4-yl)-3-methyl-2-oxo-2,3-dihydro-1H-benzo[d]imidazol-1-yl) piperidine-2,6-dione]
2 | < 10 | 1 to 10 | – | > 100 | CCc1c(F)ccc2cc(O)cc(-c3ncc4c(N5CCC[C@@](C)(O)C5)nc(OC[C@@]56CCCN5[C@H](COC(=O)N5CCC(C#Cc7ccc8c(c7)n(C)c(=O)n8C7CCC(=O)NC7=O)CC5)CC6)nc4c3F)c12 (stereo partly drawn) [Compound 404, ((3S,7aS)-7a-(((7-(8-ethyl-7-fluoro-3-hydroxynaphthalen-1-yl)-8-fluoro-4-((R)-3-hydroxy-3-methylpiperidin-1-yl)pyrido[4,3-d]pyrimidin-2-yl)oxy)methyl)hexahydro-1H-pyrrolizin-3-yl)methyl 4-((1-(2,6-dioxopiperidin-3-yl)-3-methyl-2-oxo-2,3-dihydro-1H-benzo[d]imidazol-5-yl)ethynyl)piperidine-1-carboxylate]
3 | 10 to 100 | 1 to 10 | < 100 | – | C#Cc1cc(F)cc2cc(O)cc(-c3ncc4c(N5CCC[C@@](C)(O)C5)nc(OC[C@@]56CCCN5[C@H](COC(=O)N5CCC(CN7CCC(c8ccc9c(c8)n(C)c(=O)n9C8CCC(=O)NC8=O)CC7)CC5)CC6)nc4c3F)c12 (stereo partly drawn) [Compound 405, ((3S,7aS)-7a-(((7-(8-Ethynyl-6-fluoro-3-hydroxynaphthalen-1-yl)-8-fluoro-4-((R)-3-hydroxy-3-methylpiperidin-1-yl)pyrido[4,3-d]pyrimidin-2-yl)oxy)methyl)hexahydro-1H-pyrrolizin-3-yl)methyl 4-((4-(1-(2,6-dioxopiperidin-3-yl)-3-methyl-2-oxo-2,3-dihydro-1H-benzo[d]imidazole-5-yl)piperidin-1-yl)methyl) piperidine-1-carboxylate]
4 | < 10 | < 1 | < 100 | – | C#Cc1c(F)ccc2cc(O)cc(-c3ncc4c(N5CCC[C@@](C)(O)C5)nc(OC[C@@]56CCCN5[C@H](COC(=O)N5CCC(CN7CCC(c8cc9c(cc8F)n(C8CCC(=O)NC8=O)c(=O)n9C)CC7)CC5)CC6)nc4c3F)c12 (stereo partly drawn) [Compound 407, ((3S,7aS)-7a-(((7-(8-ethynyl-7-fluoro-3-hydroxynaphthalen-1-yl)-8-fluoro-4-((R)-3-hydroxy-3-methylpiperidin-1-yl)pyrido[4,3-d]pyrimidin-2-yl)oxy)methyl)hexahydro-1H-pyrrolizin-3-yl)methyl 4-((4-(1-(2,6-dioxopiperidin-3-yl)-6-fluoro-3-methyl-2-oxo-2,3-dihydro-1H-benzo[d]imidazol-5-yl)piperidin-1-yl)methyl)piperidine-1-carboxylate]
5 | < 10 | < 1 | < 100 | – | Cn1c(=O)n(C2CCC(=O)NC2=O)c2ccc(C3CCN(CC4CCN(C(=O)OC[C@@H]5CC[C@]6(COc7nc(N8CCC[C@@](C)(O)C8)c8cnc(-c9cc(O)cc%10ccc(F)c(Cl)c9%10)c(F)c8n7)CCCN56)CC4)CC3)cc21 (stereo partly drawn) [Compound 409, ((3S,7aS)-7a-(((7-(8-chloro-7-fluoro-3-hydroxynaphthalen-1-yl)-8-fluoro-4-((R)-3-hydroxy-3-methylpiperidin-1-yl)pyrido[4,3-d]pyrimidin-2-yl)oxy)methyl)hexahydro-1H-pyrrolizin-3-yl)methyl 4-((4-(1-(2,6-dioxopiperidin-3-yl)-3-methyl-2-oxo-2,3-dihydro-1H-benzo[d]imidazol-5-yl)piperidin-1-yl)methyl)piperidine-1-carboxylate]
6 | < 10 | < 1 | < 100 | – | Cn1c(=O)n(C2CCC(=O)NC2=O)c2ccc(C3CCN(CC4CCN(C(=O)OC[C@@H]5CC[C@]6(COc7nc(N8CCC[C@@](C)(O)C8)c8cnc(-c9cc(O)cc%10ccc(F)c(F)c9%10)c(F)c8n7)CCCN56)CC4)CC3)cc21 (stereo partly drawn) [Compound 410, ((3S,7aS)-7a-(((7-(7,8-difluoro-3-hydroxynaphthalen-1-yl)-8-fluoro-4-((R)-3-hydroxy-3-methylpiperidin-1-yl)pyrido[4,3-d]pyrimidin-2-yl)oxy)methyl)hexahydro-1H-pyrrolizin-3-yl)methyl 4-((4-(1-(2,6-dioxopiperidin-3-yl)-3-methyl-2-oxo-2,3-dihydro-1H-benzo[d]imidazol-5-yl)piperidin-1-yl)methyl)piperidine-1-carboxylate]
7 | < 10 | < 1 | < 100 | – | C#Cc1c(F)ccc2cc(O)cc(-c3ncc4c(N5CCC[C@@](C)(O)C5)nc(OC[C@@]56CCCN5[C@H](COC(=O)N5CCC7(CCC(N8CCC(c9ccc%10c(c9)n(C)c(=O)n%10C9CCC(=O)NC9=O)CC8)CC7)CC5)CC6)nc4c3F)c12 (stereo partly drawn) [Compound 413, ((3S,7aS)-7a-(((7-(8-ethynyl-7-fluoro-3-hydroxynaphthalen-1-yl)-8-fluoro-4-((R)-3-hydroxy-3-methylpiperidin-1-yl)pyrido[4,3-d]pyrimidin-2-yl)oxy)methyl)hexahydro-1H-pyrrolizin-3-yl)methyl 9-(4-(1-(2,6-dioxopiperidin-3-yl)-3-methyl-2-oxo-2,3-dihydro-1H-benzo[d]imidazol-5-yl)piperidin-1-yl)-3-azaspiro[5.5]undecane-3-carboxylate]
8 | 10 to 100 | ≥ 10 | < 100 | – | C#Cc1c(F)ccc2cc(O)cc(-c3ncc4c(N5CCC[C@@](C)(O)C5)nc(OC[C@@]56CCCN5[C@H](COC(=O)N5CCC(N7CC(N8CCC(c9ccc%10c(c9)n(C)c(=O)n%10C9CCC(=O)NC9=O)CC8)C7)CC5)CC6)nc4c3F)c12 (stereo partly drawn) [Compound 414, ((3S,7aS)-7a-(((7-(8-ethynyl-7-fluoro-3-hydroxynaphthalen-1-yl)-8-fluoro-4-((R)-3-hydroxy-3-methylpiperidin-1-yl)pyrido[4,3-d]pyrimidin-2-yl)oxy)methyl)hexahydro-1H-pyrrolizin-3-yl)methyl 4-(3-(4-(1-(2,6-dioxopiperidin-3-yl)-3-methyl-2-oxo-2,3-dihydro-1H-benzo[d]imidazol-5-yl)piperidin-1-yl)azetidin-1-yl)piperidine-1-carboxylate]
9 | > 100 | ≥ 10 | < 100 | – | C#Cc1c(F)ccc2cc(O)cc(-c3ncc4c(N5CCC[C@@](C)(O)C5)nc(OC[C@@]56CCCN5[C@H](COC(=O)N5CCC7(CCC7N7CCC(c8ccc9c(c8)n(C)c(=O)n9C8CCC(=O)NC8=O)CC7)CC5)CC6)nc4c3F)c12 (stereo partly drawn) [Compound 415, ((3S,7aS)-7a-(((7-(8-ethynyl-7-fluoro-3-hydroxynaphthalen-1-yl)-8-fluoro-4-((R)-3-hydroxy-3-methylpiperidin-1-yl)pyrido[4,3-d]pyrimidin-2-yl)oxy)methyl)hexahydro-1H-pyrrolizin-3-yl)methyl 1-(4-(1-(2,6-dioxopiperidin-3-yl)-3-methyl-2-oxo-2,3-dihydro-1H-benzo[d]imidazol-5-yl)piperidin-1-yl)-7-azaspiro[3.5]nonane-7-carboxylate]
10 | < 10 | < 1 | < 100 | – | CCc1c(F)ccc2cc(O)cc(-c3ncc4c(N5CCC[C@@](C)(O)C5)nc(OC[C@@]56CCCN5[C@H](COC(=O)N5CC7(CC(N8CCC(c9ccc%10c(c9)n(C)c(=O)n%10C9CCC(=O)NC9=O)CC8)C7)C5)CC6)nc4c3F)c12 (stereo partly drawn) [Compound 416, ((3S,7aS)-7a-(((7-(8-ethyl-7-fluoro-3-hydroxynaphthalen-1-yl)-8-fluoro-4-((R)-3-hydroxy-3-methylpiperidin-1-yl)pyrido[4,3-d]pyrimidin-2-yl)oxy)methyl)hexahydro-1H-pyrrolizin-3-yl)methyl 6-(4-(1-(2,6-dioxopiperidin-3-yl)-3-methyl-2-oxo-2,3-dihydro-1H-benzo[d]imidazol-5-yl)piperidin-1-yl)-2-azaspiro[3.3]heptane-2-carboxylate]
